Experimental data published in US8871798B2, “Tricyclic pyridyl-vinyl pyrroles as PAR1 inhibitors” (Sanofi, priority 2010, dated 2014).

biological target: T1, PAR1 (Homo sapiens, UniProt P25116); assay: Inhibition of PAR1-mediated platelet aggregation induced by TRAP (thrombin receptor-activating peptide), washed platelets, 96-well format; type: cell-based; conditions: TRAP-induced aggregation of platelets from healthy volunteers; 30 min preincubation at RT; AUC of kinetics at 650 nm, 37° C., 20 minutes
T1 construct: endogenous in cells; host or cells: washed platelets from blood of healthy volunteers
T1 sequence (P25116 22-425): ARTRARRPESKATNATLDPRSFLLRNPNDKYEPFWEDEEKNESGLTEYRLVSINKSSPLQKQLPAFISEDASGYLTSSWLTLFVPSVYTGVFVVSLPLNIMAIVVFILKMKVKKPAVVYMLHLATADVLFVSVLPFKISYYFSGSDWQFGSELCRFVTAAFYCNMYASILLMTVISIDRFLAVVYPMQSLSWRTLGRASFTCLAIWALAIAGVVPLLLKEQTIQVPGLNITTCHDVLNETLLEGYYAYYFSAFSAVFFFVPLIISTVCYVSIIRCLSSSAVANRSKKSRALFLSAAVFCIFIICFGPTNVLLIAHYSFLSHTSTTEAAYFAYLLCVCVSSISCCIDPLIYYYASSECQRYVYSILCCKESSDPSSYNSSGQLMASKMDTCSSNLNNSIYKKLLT
Description: PAR1 Determination Method: Inhibition of PAR1-Mediated Platelet Aggregation
The pharmacological testing of the substances took place in platelet aggregation induced by TRAP (thrombin receptor-activating peptide) in 96-well format. For this purpose, blood was taken from healthy volunteers in 20 ml syringes containing 2 ml of 3.13% strength sodium citrate solution. After centrifugation at 150×g for 20 minutes, the platelet-rich plasma (PRP) was separated off and mixed with 1 μl of PGE1 solution (500 μg/ml in ethanol)/ml of PRP. Incubation at RT for 5 minutes was followed by centrifugation at 120×g for 15 minutes to remove the leukocytes. The leukocyte-free PRP was transferred in 5 ml portions into 15 ml PP tubes and centrifuged at 360×g for 15 minutes in order to pellet the platelets. The plasma was then decanted off and the platelet sediment from 5 ml of PRP was resuspended in 1 ml of Tyrode's (120 mM NaCl, 2.6 mM KCl, 12 mM NaHCO3, 0.39 mM NaH2PO4×H2O, 10 mM HEPES, 0.35% BSA (Bovine Serum Albumin), 5.5 mM glucose, pH 7.4) and adjusted with Tyrode's to a platelet count of 3×10^5/microliter (μl). 13 ml of this cell suspension were then mixed with 866 μl of 10 mM CaCl2 solution, and 120 μl thereof were pipetted into each well of a 96-well plate containing 15 μl of the substance to be tested. After incubation at RT in the dark for 30 minutes, 15 μl of a TRAP solution (70-100 μM) were added as agonist, and kinetics were recorded at 650 nm in a SpectraMax 340 at 37° C. for 20 minutes while shaking. The areas under the curves of negative control (Tyrode's/DMSO) and positive control (15 μl of agonist DMSO) were calculated and the difference was fixed as the 100% value. The substances to be tested were pipetted as serial dilutions in duplicate determination, the AUC was likewise determined for each substance concentration, and the % inhibition of the AUC compared with the control was calculated. On the basis of the % inhibition, the IC50 was calculated by nonlinear regression analysis according to the 4-parameter equation.

| Compound | IC50 |
| --- | --- |
| CN1C(=O)C2C(C1=O)C1COCCN1C2/C=C/c1ccc(-c2cccc(F)c2)cn1 (racemic) [13 (Fr. 3), 6-{(E)-2-[5-(3-Fluorophenyl)pyridin-2-yl]vinyl}-8-methylhexahydropyrrolo[3′,4′:3,4]pyrrolo[2,1-c][1,4]oxazine-7,9-dione] | 7.1 µM |
| CN1C(=O)[C@@H]2[C@H](C1=O)[C@H](/C=C/c1ccc(-c3ccccc3Cl)cn1)N1CCCC[C@@H]21 (racemic) [Example 20, 4-{(E)-2-[5-(2-Chlorophenyl)pyridin-2-yl]vinyl}-2-methyloctahydropyrrolo[3,4-a]-indolizine-1,3-dione] | 0.26 µM |
| CCN1C(=O)C2C(C1=O)C1CCCCN1C2/C=C/c1ccc(-c2cccc(F)c2)cn1 (racemic) [14 (Fr. 3), 2-Ethyl-4-{(E)-2-[5-(3-fluorophenyl)pyridin-2-yl]vinyl}octahydropyrrolo[3,4-a]indolizine-1,3-dione] | 3.68 µM |
| COc1ccccc1-c1ccc(/C=C/[C@H]2[C@H]3C(=O)N(C)C(=O)[C@H]3[C@@H]3CCCCN23)nc1 (racemic) [Example 19, 4-{(E)-2-[5-(2-Methoxyphenyl)pyridin-2-yl]vinyl}-2-methyloctahydropyrrolo[3,4-a]-indolizine-1,3-dione] | 4.09 µM |
| CN1C(=O)C2C(C1=O)C1C[C@H](O)CN1C2/C=C/c1ccc(-c2cccc(F)c2)cn1 (mixture of isomers) [11 (Fr. 2), (S)-4-{(E)-2-[5-(3-Fluorophenyl)pyridin-2-yl]vinyl}-7-hydroxy-2-methylhexahydropyrrolo[3,4-a]pyrrolizine-1,3-dione] | 15.8 µM |
| CN1C(=O)[C@@H]2[C@H](C1=O)[C@H](/C=C/c1ccc(-c3cccc(C(F)(F)F)c3)cn1)N1CCCC[C@@H]21 (racemic) [Example 18, 2-Methyl-4-{(E)-2-[5-(3-trifluoromethylphenyl)pyridin-2-yl]vinyl}octahydropyrrolo[3,4-a]indolizine-1,3-dione] | 3.23 µM |
